According to ChEMBL document CHEMBL4396868, “Discovery of Potent, Selective, and Brain-Penetrant 1 H-Pyrazol-5-yl-1 H-pyrrolo[2,3- b]pyridines as Anaplastic Lymphoma Kinase (ALK) Inhibitors” (J Med Chem, 2019):

Key:
[1] = Brain to plasma partition coefficient, Kp of the compound in Jcl-ICR mouse at 100 mg/kg, ip measured at 0.5 hrs by LC/MS/MS analysis; format: ADME, organism-based
[2] = Unbound brain-to-plasma concentration ratio in Jcl-ICR mouse at 100 mg/kg, ip measured at 0.5 hrs by LC/MS/MS analysis; format: ADME, organism-based; conditions: read-out: K(p,uu,brain)
[3] = target: Serine/threonine-protein kinase PLK1 (Homo sapiens) (UniProt P53350); test: Inhibition of N-terminal FLAG-tagged PLK1 (unknown origin) expressed in baculovirus expression system at 100 nM using alpha-casein as substrate preincubated for 5 mins followed by [gamma-33P]ATP addition and measured after 40 mins by topcount scintillation counting method relative to control
[4] = target: Dual specificity mitogen-activated protein kinase kinase 1 (Homo sapiens) (UniProt Q02750); test: Inhibition of N-terminal GST-fused MEK1 (unknown origin) expressed in FreeStyle 293 cells at 100 nM using GST-ERK1(K71A) as substrate preincubated for 5 mins followed by [gamma-33P]ATP addition and measured after 20 mins by topcount scintillation counting method relative to control
[5] = target: High affinity nerve growth factor receptor (Homo sapiens, UniProt P04629); test: Inhibition of TRKA (unknown origin) at 100 nM by [gamma-33P]ATP-based radiometric or Alphascreen assay relative to control
[6] = target: Hepatocyte growth factor receptor (Homo sapiens) (UniProt P08581); test: Inhibition of recombinant human N-terminal GST-fused/His6-tagged c-MET (956 to 1390 residues) expressed in baculovirus infected Spodoptera frugiperda cells at 100 nM preincubated for 5 mins followed by ATP addition and measured after 10 mins by alphascreen assay relative to control
[7] = target: Mitogen-activated protein kinase 3 (Homo sapiens) (UniProt P27361); test: Inhibition of N-terminal FLAG-tagged ERK1 (unknown origin) expressed in baculovirus expression system at 100 nM using myelin basic protein as substrate preincubated for 5 mins followed by [gamma-33P]ATP addition and measured after 60 mins by topcount scintillation counting method relative to control
[8] = target: Proto-oncogene tyrosine-protein kinase Src (Homo sapiens) (UniProt P12931); test: Inhibition of recombinant human full-length N-terminal His6-tagged SRC expressed in Sf21 insect cells at 100 nM preincubated for 5 mins followed by ATP addition and measured after 10 mins by alphascreen assay relative to control
[9] = target: Ephrin type-A receptor 5 (Homo sapiens) (UniProt P54756); test: Inhibition of EPHA5 (unknown origin) at 100 nM by [gamma-33P]ATP-based radiometric or Alphascreen assay relative to control
[10] = target: Interleukin-1 receptor-associated kinase 4 (Homo sapiens) (UniProt Q9NWZ3); test: Inhibition of IRAK4 (unknown origin) at 100 nM by [gamma-33P]ATP-based radiometric or Alphascreen assay relative to control
[11] = Fraction unbound in ICR mouse plasma at 1 umol/L measured for 20 hrs by equilibrium dialysis based LC-MS/MS analysis; format: ADME, cell-free; conditions: 1 µM
[12] = Drug level in Jcl-ICR mouse plasma at 100 mg/kg, ip measured at 2 hr by LC/MS/MS analysis; format: ADME, organism-based
[13] = Drug level in Jcl-ICR mouse brain at 100 mg/kg, ip measured at 1 hr by LC/MS/MS analysis; format: ADME, organism-based; conditions: read-out: Drug uptake
[14] = target: ALK tyrosine kinase receptor (Homo sapiens, UniProt Q9UM73); format: cell-based, HEK293
Description: Inhibition of recombinant human ALK expressed in HEK293 cells assessed as reduction in ALK autophosphorylation at Tyr1604 residue incubated for 60 mins by sandwich ELISA

[15] = target: Rho-associated protein kinase 1 (Homo sapiens) (UniProt Q13464); test: Inhibition of ROCK1 (unknown origin) at 100 nM by [gamma-33P]ATP-based radiometric or Alphascreen assay relative to control
[16] = Drug level in Jcl-ICR mouse plasma at 100 mg/kg, ip measured at 1 hr by LC/MS/MS analysis; format: ADME, organism-based
[17] = Drug level in Jcl-ICR mouse plasma at 100 mg/kg, ip measured at 0.5 hrs by LC/MS/MS analysis; format: ADME, organism-based
[18] = Brain to plasma partition coefficient, Kp of the compound in Jcl-ICR mouse at 100 mg/kg, ip measured at 1 hr by LC/MS/MS analysis; format: ADME, organism-based
[19] = target: Phosphatidylinositol 4,5-bisphosphate 3-kinase catalytic subunit alpha isoform (Homo sapiens) (UniProt P42336); test: Inhibition of PI3Kalpha (unknown origin) at 100 nM by [gamma-33P]ATP-based radiometric or Alphascreen assay relative to control
[20] = Drug level in Jcl-ICR mouse brain at 100 mg/kg, ip measured at 2 hr by LC/MS/MS analysis; format: ADME, organism-based; conditions: read-out: Drug uptake

Sequence of Mitogen-activated protein kinase 3 (Homo sapiens) (P27361 whole entry): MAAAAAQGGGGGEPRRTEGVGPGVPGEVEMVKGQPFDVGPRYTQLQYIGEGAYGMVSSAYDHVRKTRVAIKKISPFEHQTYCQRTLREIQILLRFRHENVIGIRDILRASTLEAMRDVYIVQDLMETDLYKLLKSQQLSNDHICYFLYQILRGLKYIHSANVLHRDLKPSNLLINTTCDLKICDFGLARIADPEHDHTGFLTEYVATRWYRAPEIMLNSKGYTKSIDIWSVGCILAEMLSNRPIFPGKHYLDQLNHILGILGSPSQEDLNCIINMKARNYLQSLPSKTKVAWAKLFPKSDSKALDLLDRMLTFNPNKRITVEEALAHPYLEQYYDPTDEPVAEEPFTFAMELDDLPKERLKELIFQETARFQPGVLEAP
Sequence of Serine/threonine-protein kinase PLK1 (Homo sapiens) (P53350 whole entry, the tested form may be a part): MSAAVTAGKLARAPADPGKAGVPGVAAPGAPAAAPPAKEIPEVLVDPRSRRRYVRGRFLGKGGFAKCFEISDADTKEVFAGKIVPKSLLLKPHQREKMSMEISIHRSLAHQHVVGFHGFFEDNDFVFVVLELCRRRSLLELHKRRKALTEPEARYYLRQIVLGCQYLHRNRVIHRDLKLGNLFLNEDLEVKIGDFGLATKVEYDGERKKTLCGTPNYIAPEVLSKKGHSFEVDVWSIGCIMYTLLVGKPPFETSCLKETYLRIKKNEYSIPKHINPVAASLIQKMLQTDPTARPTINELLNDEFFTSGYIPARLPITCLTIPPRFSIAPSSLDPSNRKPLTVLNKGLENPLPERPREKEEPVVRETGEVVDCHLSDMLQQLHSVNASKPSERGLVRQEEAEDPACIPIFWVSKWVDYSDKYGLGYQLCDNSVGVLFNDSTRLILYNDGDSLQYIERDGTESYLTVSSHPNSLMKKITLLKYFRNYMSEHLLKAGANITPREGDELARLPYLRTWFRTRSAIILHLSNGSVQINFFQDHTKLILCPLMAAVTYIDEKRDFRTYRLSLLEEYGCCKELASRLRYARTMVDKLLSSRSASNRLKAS
Sequence of High affinity nerve growth factor receptor (P04629 33-796 limits assumed): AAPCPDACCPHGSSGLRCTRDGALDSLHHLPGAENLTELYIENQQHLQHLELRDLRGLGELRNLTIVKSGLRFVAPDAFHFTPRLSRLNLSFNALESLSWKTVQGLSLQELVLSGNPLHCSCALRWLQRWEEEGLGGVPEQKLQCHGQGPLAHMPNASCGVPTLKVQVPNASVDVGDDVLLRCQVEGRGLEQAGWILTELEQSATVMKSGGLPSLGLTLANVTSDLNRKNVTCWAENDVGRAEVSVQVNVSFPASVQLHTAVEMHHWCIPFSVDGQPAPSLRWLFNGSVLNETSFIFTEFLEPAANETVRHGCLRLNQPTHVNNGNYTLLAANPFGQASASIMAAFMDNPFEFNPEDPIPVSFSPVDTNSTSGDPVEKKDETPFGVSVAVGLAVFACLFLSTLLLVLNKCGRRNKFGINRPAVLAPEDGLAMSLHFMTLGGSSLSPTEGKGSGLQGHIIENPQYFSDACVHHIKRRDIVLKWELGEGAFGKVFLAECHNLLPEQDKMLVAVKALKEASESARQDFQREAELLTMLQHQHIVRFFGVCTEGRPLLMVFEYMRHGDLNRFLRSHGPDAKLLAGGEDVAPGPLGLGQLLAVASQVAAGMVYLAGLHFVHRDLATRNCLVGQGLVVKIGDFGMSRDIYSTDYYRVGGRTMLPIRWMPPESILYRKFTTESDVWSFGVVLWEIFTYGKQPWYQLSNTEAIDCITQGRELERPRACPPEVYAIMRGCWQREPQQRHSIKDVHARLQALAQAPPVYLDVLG
Sequence of Ephrin type-A receptor 5 (Homo sapiens) (P54756 whole entry): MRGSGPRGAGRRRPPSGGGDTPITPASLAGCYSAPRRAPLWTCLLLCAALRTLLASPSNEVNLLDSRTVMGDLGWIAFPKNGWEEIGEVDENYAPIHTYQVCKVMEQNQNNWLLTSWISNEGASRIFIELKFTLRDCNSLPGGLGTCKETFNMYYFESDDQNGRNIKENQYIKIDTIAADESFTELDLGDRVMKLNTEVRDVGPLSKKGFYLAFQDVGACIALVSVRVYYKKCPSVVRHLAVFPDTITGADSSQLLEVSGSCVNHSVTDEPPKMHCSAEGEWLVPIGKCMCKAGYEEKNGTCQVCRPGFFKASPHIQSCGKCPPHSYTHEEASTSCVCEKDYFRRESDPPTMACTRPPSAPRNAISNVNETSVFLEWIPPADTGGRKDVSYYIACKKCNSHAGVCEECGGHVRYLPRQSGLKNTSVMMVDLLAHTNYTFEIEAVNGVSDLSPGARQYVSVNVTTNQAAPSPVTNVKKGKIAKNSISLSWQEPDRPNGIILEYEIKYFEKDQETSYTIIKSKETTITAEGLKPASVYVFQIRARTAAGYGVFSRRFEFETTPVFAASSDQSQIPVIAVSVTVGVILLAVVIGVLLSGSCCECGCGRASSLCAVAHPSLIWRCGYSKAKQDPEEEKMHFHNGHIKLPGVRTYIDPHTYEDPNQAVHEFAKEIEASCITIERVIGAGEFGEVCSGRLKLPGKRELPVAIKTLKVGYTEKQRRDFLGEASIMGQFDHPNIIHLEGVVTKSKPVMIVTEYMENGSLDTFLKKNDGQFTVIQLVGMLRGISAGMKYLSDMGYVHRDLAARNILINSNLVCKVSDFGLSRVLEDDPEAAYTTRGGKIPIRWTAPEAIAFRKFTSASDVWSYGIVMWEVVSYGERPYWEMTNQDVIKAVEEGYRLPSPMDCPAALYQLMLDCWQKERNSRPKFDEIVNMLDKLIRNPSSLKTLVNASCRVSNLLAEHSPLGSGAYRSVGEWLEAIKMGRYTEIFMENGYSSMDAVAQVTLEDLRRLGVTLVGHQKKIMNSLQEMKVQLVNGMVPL
Sequence of Dual specificity mitogen-activated protein kinase kinase 1 (Homo sapiens) (Q02750 whole entry, the tested form may be a part): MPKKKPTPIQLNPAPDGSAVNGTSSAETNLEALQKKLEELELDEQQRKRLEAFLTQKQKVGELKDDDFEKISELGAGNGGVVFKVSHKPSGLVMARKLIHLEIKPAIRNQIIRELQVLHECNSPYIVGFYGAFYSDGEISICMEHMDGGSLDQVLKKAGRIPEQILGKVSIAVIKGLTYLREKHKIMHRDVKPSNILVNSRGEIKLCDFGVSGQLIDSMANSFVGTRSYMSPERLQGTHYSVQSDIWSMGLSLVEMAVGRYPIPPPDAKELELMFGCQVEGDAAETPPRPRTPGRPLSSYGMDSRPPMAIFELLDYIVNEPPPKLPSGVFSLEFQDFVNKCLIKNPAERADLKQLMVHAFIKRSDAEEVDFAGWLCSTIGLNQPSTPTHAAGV
Sequence of Interleukin-1 receptor-associated kinase 4 (Homo sapiens) (Q9NWZ3 whole entry): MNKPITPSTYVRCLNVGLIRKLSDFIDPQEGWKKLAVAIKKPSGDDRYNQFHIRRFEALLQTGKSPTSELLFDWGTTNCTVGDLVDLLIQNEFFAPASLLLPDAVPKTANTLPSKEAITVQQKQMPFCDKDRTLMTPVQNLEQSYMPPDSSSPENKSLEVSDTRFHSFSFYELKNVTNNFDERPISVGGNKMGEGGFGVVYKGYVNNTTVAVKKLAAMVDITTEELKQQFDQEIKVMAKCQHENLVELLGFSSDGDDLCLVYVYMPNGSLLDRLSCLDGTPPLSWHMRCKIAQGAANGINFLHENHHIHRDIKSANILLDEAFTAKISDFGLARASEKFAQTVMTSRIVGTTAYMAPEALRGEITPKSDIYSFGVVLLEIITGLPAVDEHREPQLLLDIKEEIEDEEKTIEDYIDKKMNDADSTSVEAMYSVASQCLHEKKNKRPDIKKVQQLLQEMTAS
Sequence of Rho-associated protein kinase 1 (Homo sapiens) (Q13464 2-1354 limits assumed): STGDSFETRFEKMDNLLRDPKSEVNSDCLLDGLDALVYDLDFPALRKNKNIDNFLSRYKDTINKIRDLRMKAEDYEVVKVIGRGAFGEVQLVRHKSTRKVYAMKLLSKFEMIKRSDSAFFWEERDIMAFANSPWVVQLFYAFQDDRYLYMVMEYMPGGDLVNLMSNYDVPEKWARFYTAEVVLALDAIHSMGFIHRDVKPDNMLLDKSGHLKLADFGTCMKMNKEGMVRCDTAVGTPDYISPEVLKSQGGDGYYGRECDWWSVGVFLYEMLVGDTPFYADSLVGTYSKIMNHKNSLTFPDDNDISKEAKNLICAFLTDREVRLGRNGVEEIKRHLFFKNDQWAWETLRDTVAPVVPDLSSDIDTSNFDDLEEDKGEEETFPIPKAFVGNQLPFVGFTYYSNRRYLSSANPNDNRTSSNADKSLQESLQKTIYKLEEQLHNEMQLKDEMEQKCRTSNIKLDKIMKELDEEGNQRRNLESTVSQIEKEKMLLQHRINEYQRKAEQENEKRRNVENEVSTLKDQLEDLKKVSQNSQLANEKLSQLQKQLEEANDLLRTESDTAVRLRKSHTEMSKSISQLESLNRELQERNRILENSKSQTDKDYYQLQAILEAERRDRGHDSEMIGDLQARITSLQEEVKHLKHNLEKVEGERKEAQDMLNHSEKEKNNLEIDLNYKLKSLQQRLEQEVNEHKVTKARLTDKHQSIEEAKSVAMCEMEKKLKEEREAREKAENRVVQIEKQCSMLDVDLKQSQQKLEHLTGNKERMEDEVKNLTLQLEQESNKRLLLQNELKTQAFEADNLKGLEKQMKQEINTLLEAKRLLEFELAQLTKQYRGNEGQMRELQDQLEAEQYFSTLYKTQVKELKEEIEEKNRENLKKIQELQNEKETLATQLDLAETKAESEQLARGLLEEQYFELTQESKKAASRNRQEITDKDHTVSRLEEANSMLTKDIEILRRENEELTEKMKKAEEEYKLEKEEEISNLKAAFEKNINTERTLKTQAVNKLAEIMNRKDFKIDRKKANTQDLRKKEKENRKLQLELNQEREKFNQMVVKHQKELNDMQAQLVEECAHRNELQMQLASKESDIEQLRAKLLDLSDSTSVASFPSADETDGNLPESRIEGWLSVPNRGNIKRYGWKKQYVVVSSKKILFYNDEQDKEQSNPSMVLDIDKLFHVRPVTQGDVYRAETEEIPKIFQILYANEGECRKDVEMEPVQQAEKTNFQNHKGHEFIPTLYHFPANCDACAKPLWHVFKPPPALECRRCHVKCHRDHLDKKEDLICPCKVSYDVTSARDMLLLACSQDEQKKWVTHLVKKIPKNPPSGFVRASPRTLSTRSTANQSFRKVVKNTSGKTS

Kp at 0.5 h [1]: 1.26
Kp uu at 0.5 h [2]: 0.27
inhibition [3]: 5%
inhibition [4]: -1%
inhibition [5]: 9%
inhibition [6]: -5%
inhibition [7]: 3%
inhibition [8]: -2%
inhibition [9]: -2%
inhibition [10]: -7%
Fu [11]: 0.08%
concentration at 2 h [12]: 11600 ng/mL
concentration at 1 h [13]: 33400 ng/mL
IC50 [14]: 27 nM
inhibition [15]: -5%
concentration at 1 h [16]: 26200 ng/mL
concentration at 0.5 h [17]: 26200 ng/mL
Kp at 1 h [18]: 1.28
inhibition [19]: -2%
concentration at 2 h [20]: 10300 ng/mL
SMILES: Cc1cc(-n2cc(C(=O)N3CCO[C@@H](C)C3)c3ccc(O[C@@H](C)c4ccc(F)cn4)nc32)n[nH]1
